Measurements: article PMC10580383, “Development of Melanocortin 4 Receptor Agonists by Exploiting Animal-Derived Macrocyclic, Disulfide-Rich Peptide Scaffolds” (ACS Pharmacology & Translational Science, 2023)
Where two headings read alike, the source gives them in different places. Where a SMILES comes first, the peptide text is derived from it. Bridges are numbered along the chain shown (N, C = ends). Where no end group is shown, it is not given here. [ ]: non-standard residue; d: D form. pGlu = O=C1CC[C@@H](C(=O)O)N1

B1: protegrin-4-like peptide 3 (peptide)
peptide: RGGRLCYCH[dF]RWCFCVGR-NH2
modifications: disulfide 8-13, 6-15; N-terminus assumed
SMILES: CC(C)C[C@H](NC(=O)[C@H](CCCNC(=N)N)NC(=O)CNC(=O)CNC(=O)[C@@H](N)CCCNC(=N)N)C(=O)N[C@H]1CSSC[C@@H](C(=O)N[C@H](C(=O)NCC(=O)N[C@@H](CCCNC(=N)N)C(N)=O)C(C)C)NC(=O)[C@H](Cc2ccccc2)NC(=O)[C@@H]2CSSC[C@H](NC(=O)[C@H](Cc3ccc(O)cc3)NC1=O)C(=O)N[C@@H](Cc1c[nH]cn1)C(=O)N[C@H](Cc1ccccc1)C(=O)N[C@@H](CCCNC(=N)N)C(=O)N[C@@H](Cc1c[nH]c3ccccc13)C(=O)N2
B2: protegrin-4-like peptide 2 (peptide)
peptide: RGGRLCYCH[dF]HWCFCVGR-NH2
modifications: disulfide 8-13, 6-15; N-terminus assumed
SMILES: CC(C)C[C@H](NC(=O)[C@H](CCCNC(=N)N)NC(=O)CNC(=O)CNC(=O)[C@@H](N)CCCNC(=N)N)C(=O)N[C@H]1CSSC[C@@H](C(=O)N[C@H](C(=O)NCC(=O)N[C@@H](CCCNC(=N)N)C(N)=O)C(C)C)NC(=O)[C@H](Cc2ccccc2)NC(=O)[C@@H]2CSSC[C@H](NC(=O)[C@H](Cc3ccc(O)cc3)NC1=O)C(=O)N[C@@H](Cc1c[nH]cn1)C(=O)N[C@H](Cc1ccccc1)C(=O)N[C@@H](Cc1c[nH]cn1)C(=O)N[C@@H](Cc1c[nH]c3ccccc13)C(=O)N2

Tests used:
[1] = biological target: T1, mouse melanocortin 4 receptor (MC4R) (Mus musculus, UniProt P56450); assay: cAMP second messenger quantification assay (Cisbio HTRF cAMP Gs kit); assay type: cell-based
T1 construct: expressed in transfected cells; host or cells: HEK293 / HEK293T, transient transfection
Method: Figure 3 Functional cAMP assay of synthesized peptide analogues targeting MC4R. The accumulation of adenylyl cyclase-catalyzed cAMP of (A) tachylplesin-1-like peptides (Ta1LPs, green), (B) protegrin-4-like peptides ([…], pink), (C) arenicin-3-like peptides (Ar3LPs, orange), and (D) gomesin-like peptides (GoLPs, blue) was measured in HEK293 cells transiently expressing mouse melanocortin 4 receptor (MC4R). […] Data are from three independent experiments and are shown as mean ± SEM.
Assays were performed on cells transiently expressing mouse MC4R-EGFP. BamHI and SacI restriction sites were used to clone mouse MC4R N-terminally into a pEGFP-N1 vector. Peptide ligands were assayed for […] in a 384-well format and triplicate according to the Cisbio protocol. Briefly, 5 μL containing 10,000 cells per well was incubated with 5 μL of peptide solutions prepared 2× in 1× stimulation buffer. Following an incubation of peptide ligands at 37 °C for 30 min, d2-labeled cAMP and cryptate-labeled antibody (5 μL of each) were added to the mixture and further incubated for at least 1 h at room temperature. Subsequently, cAMP levels were quantified on a Flexstation 3 (Molecular Devices, San Jose, USA) using homogeneous time-resolved fluorescence resonance energy transfer and the ratio 665/620 nm. Samples were measured in technical triplicates.
Data analysis was performed with GraphPad Prism (GraphPad Software, San Diego). The potency (EC50) and maximum efficacy (Emax) values of peptide ligands were derived from functional data fitted to three- or four-parameter nonlinear regression curves constrained to a bottom of zero.

mouse MC4R-EGFP = assay: kinetic BRET β-arrestin-2 recruitment assay (MC4R-EGFP / β-arrestin-2-nanoluciferase); assay type: cell-based; conditions: ligand 10 μM; HEK293 cells, MC4R-EGFP and β-arrestin-2-NLuc; mean ligand-induced BRET from 312 to 2433 s, NDP-α-MSH set as 100; three independent experiments
Method: Considering the physiological relevance of β-arrestins and their critical role in orchestrating MC4R signaling, we measured β-arrestin-2 recruitment in a kinetic bioluminescence resonance energy transfer (BRET) assay. We screened at a ligand concentration of 10 μM in HEK293 cells transiently expressing MC4R coupled to EGFP, and β-arrestin-2 fused to nanoluciferase. […] By contrast, Pr4LP1, Ar3LP1, Ar3LP2, and GoLP1 recruited β-arrestin-2 with greater efficiencies (>130%) than NDP-α-MSH (Figures 4 and S5B,C).
Figure 4 β-Arrestin-2 recruitment of designed MC4R peptide analogues. BRET assay was used to measure the transient interaction of MC4R-EGFP with β-arrestin-2-nanoluciferase (NLuc) in HEK293 cells over time following cell treatment with 10 μM of tachyplesin-1-like peptides (Ta1LPs, green), protegrin-4-like peptides (Pr4LPs, pink), arenicin-3-like peptides (Ar3LPs, orange), and gomesin-like peptides (GoLPs, blue). Relative BRET quantification was determined by calculating the mean value of ligand-induced BRET for each peptide ligand from 312 to 2433 s which was then divided by the mean value of ligand-induced BRET of NDP-α-MSH set as 100. Data are shown as mean ± SEM from three independent experiments.
BRET assay was performed as previously described.[32] Briefly, β-arrestin-2-nano luciferase and mouse MC4R-EGFP were cotransfected in a 1:10 ratio. 16 h post-transfection, 50,000 cells in 100 μL of phenol red-free DMEM with 10% FBS per well were transferred into white clear bottom 96-well plates and incubated overnight. On the day of the assay, cells were incubated for 1 h at 37 °C in phenol red- and serum-free DMEM. Furimazine (diluted 1:50) and peptide ligands (4×) were prepared in Hank’s balanced salt solution (HBSS), respectively. Prior to establishing the baseline and measuring kinetic BRET, furimazine was incubated for 5 min at 37 °C. The ability of peptide ligands to induce β-arrestin-2 recruitment was assessed by measuring light emissions for EGFP (510 nm) and nanoluciferase (460 nm) over 35 min using Flexstation 3 (Molecular Devices, San Jose, USA). The BRET ratio was calculated as emission EGFP (510 nm)/emission nanoluciferase (460 nm). The ligand-induced BRET was calculated by subtracting […].

[2] = biological target: mouse melanocortin 4 receptor fused to EGFP (mouse) (UniProt P56450)
[3] = biological target: mouse melanocortin 4 receptor fused to EGFP (mouse) (UniProt P56450); remark: listed apart in the source
[4] = HEK293, read-out: efficacy cAMP Emax ± SD

mouse melanocortin 4 receptor fused to EGFP (mouse), sequence (P56450 whole entry, the tested form may be a part): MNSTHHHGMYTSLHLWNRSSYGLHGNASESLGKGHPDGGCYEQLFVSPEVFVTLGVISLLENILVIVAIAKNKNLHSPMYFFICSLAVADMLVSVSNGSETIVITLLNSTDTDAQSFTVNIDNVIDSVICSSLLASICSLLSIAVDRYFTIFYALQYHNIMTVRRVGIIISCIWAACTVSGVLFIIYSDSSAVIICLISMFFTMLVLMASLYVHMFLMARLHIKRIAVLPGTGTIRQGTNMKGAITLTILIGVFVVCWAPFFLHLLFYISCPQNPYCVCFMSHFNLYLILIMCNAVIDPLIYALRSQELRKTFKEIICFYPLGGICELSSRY
T1 sequence (P56450 whole entry): as the sequence (P56450 whole entry, the tested form may be a part) above

Molecule | EC50 [1] [nM] | Emax [1, 4] [%] | BRET efficacy of β-arrestin-2 recruitment relative to NDP-α-MSH (mouse MC4R-EGFP) | Emax ([1]; HEK293; read-out: efficacy cAMP Emax ± SD) [%] | cAMP accumulation (Cisbio HTRF) in HEK293 cells transiently expressing mouse MC4R-EGFP: EC50 [2] [nM] | cAMP accumulation (Cisbio HTRF) in HEK293 cells transiently expressing mouse MC4R-EGFP: Emax (normalised to NDP-α-MSH) [2] [%] | recruitment of β-arrestin-2-nanoluciferase to MC4R-EGFP (kinetic BRET, HEK293 cells), 10 μM peptide: BRET efficacy relative to NDP-α-MSH (100) [3] [%]
CC(C)C[C@@H]1NC(=O)[C@H](CCCNC(=N)N)NC(=O)[C@H](CCCNC(=N)N)NC(=O)[C@@H](NC(=O)[C@@H]2CCC(=O)N2)CSSC[C@@H](C(=O)N[C@@H](CCCNC(=N)N)C(=O)NCC(=O)N[C@@H](CCCNC(=N)N)C(N)=O)NC(=O)[C@H](Cc2ccc(O)cc2)NC(=O)[C@H]([C@@H](C)O)NC(=O)[C@H](C(C)C)NC(=O)[C@@H]2CSSC[C@H](NC1=O)C(=O)N[C@@H](Cc1c[nH]cn1)C(=O)N[C@H](Cc1ccccc1)C(=O)N[C@@H](Cc1c[nH]cn1)C(=O)N[C@@H](Cc1c[nH]c3ccccc13)C(=O)N2 [GoLP2] ([pGlu]CRRLCH[dF]HWCVTYCRGR-NH2; disulfide 2-15, 6-11) | 158 | 116 ± 11 | less than 60% |  |  |  | 
CC(C)C[C@@H]1NC(=O)[C@H](CCCNC(=N)N)NC(=O)[C@H](CCCNC(=N)N)NC(=O)[C@@H](NC(=O)[C@@H]2CCC(=O)N2)CSSC[C@@H](C(=O)N[C@@H](CCCNC(=N)N)C(=O)NCC(=O)N[C@@H](CCCNC(=N)N)C(N)=O)NC(=O)[C@H](Cc2ccc(O)cc2)NC(=O)[C@H]([C@@H](C)O)NC(=O)[C@H](C(C)C)NC(=O)[C@@H]2CSSC[C@H](NC1=O)C(=O)N1CCC[C@H]1C(=O)N[C@@H](Cc1c[nH]cn1)C(=O)N[C@H](Cc1ccccc1)C(=O)N[C@@H](Cc1c[nH]cn1)C(=O)N[C@@H](Cc1c[nH]c3ccccc13)C(=O)N2 [GoLP1] ([pGlu]CRRLCPH[dF]HWCVTYCRGR-NH2; disulfide 2-16, 6-12) | 26 | 99 ± 3 | > 130% |  |  |  | 
CC(C)[C@@H]1NC(=O)[C@H](CCCNC(=N)N)NC(=O)[C@H](Cc2c[nH]c3ccccc23)NC(=O)[C@H](CCCNC(=N)N)NC(=O)[C@@H](Cc2ccccc2)NC(=O)[C@H](Cc2c[nH]cn2)NC(=O)[C@H](Cc2ccc(O)cc2)NC(=O)[C@H](C(C)C)NC(=O)[C@@H]2CSSC[C@H](NC1=O)C(=O)N[C@@H](Cc1ccc(O)cc1)C(=O)N[C@@H](CCCNC(=N)N)C(=O)N[C@@H](CCCNC(=N)N)C(=O)N[C@H](C(=O)N[C@@H](CC(N)=O)C(N)=O)CSSC[C@H](NC(=O)[C@H](Cc1ccccc1)NC(=O)CN)C(=O)N[C@@H](Cc1c[nH]c3ccccc13)C(=O)N[C@@H](Cc1ccc(O)cc1)C(=O)N[C@@H](C(C)C)C(=O)N2 [Ar3LP5] (H-GFCWYVCVYH[dF]RWRVCYRRCN-NH2; disulfide 3-20, 7-16) | 251 | 99 ± 8 | less than 60% |  |  |  | 
CC(C)[C@@H]1NC(=O)[C@H](CCCNC(=N)N)NC(=O)[C@H](Cc2c[nH]c3ccccc23)NC(=O)[C@H](Cc2c[nH]cn2)NC(=O)[C@@H](Cc2ccccc2)NC(=O)[C@H](Cc2c[nH]cn2)NC(=O)[C@H](Cc2ccc(O)cc2)NC(=O)[C@H](C(C)C)NC(=O)[C@@H]2CSSC[C@H](NC1=O)C(=O)N[C@@H](Cc1ccc(O)cc1)C(=O)N[C@@H](CCCNC(=N)N)C(=O)N[C@@H](CCCNC(=N)N)C(=O)N[C@H](C(=O)N[C@@H](CC(N)=O)C(N)=O)CSSC[C@H](NC(=O)[C@H](Cc1ccccc1)NC(=O)CN)C(=O)N[C@@H](Cc1c[nH]c3ccccc13)C(=O)N[C@@H](Cc1ccc(O)cc1)C(=O)N[C@@H](C(C)C)C(=O)N2 [Ar3LP4] (H-GFCWYVCVYH[dF]HWRVCYRRCN-NH2; disulfide 3-20, 7-16) | 794 | 106 ± 14 | less than 60% |  |  |  | 
CC(C)[C@@H]1NC(=O)[C@H](Cc2c[nH]c3ccccc23)NC(=O)[C@H](Cc2c[nH]cn2)NC(=O)[C@@H](Cc2ccccc2)NC(=O)[C@H](Cc2c[nH]cn2)NC(=O)[C@@H]2CCCN2C(=O)[C@H](Cc2ccc(O)cc2)NC(=O)[C@H](C(C)C)NC(=O)[C@@H]2CSSC[C@H](NC1=O)C(=O)N[C@@H](Cc1ccc(O)cc1)C(=O)N[C@@H](CCCNC(=N)N)C(=O)N[C@@H](CCCNC(=N)N)C(=O)N[C@H](C(=O)N[C@@H](CC(N)=O)C(N)=O)CSSC[C@H](NC(=O)[C@H](Cc1ccccc1)NC(=O)CN)C(=O)N[C@@H](Cc1c[nH]c3ccccc13)C(=O)N[C@@H](Cc1ccc(O)cc1)C(=O)N[C@@H](C(C)C)C(=O)N2 [Ar3LP2] (H-GFCWYVCVYPH[dF]HWVCYRRCN-NH2; disulfide 3-20, 7-16) | 20 |  | > 130% | 95 ± 10 |  |  | 
GFCWYVCVYH[dF]HWRVCYRRCN-NH2 (disulfide 7-16, 3-20) [arenicin-3-like peptide 4] |  |  |  |  | 820 | 106 | < 60
B1 |  |  |  |  | 210 | 99 | 
B2 |  |  |  |  | 150 | 97 | 
GFCWYVCVYH[dF]RWRVCYRRCN-NH2 (disulfide 7-16, 3-20) [arenicin-3-like peptide 5] |  |  |  |  | 260 | 99 | < 60
